Source: PubChem BioAssay AID248 (DTP/NCI, 2004)
Values joined by “and” are separate entries in the source; they are usually repeats but may differ in a detail not shown here. Equal values may be shown once. Inconclusive results and toxic doses are left out. Cut-off read from the data, not from the text of the source: active = T/C of 150% or more; inactive = T/C below 125%.

Test system: L1210 leukemia ip in BDF1 mice, survival T/C
Assay: NCI In Vivo Anticancer Drug Screen. Data for tumor model L1210 Leukemia (intraperitoneal) in B6D2F1 (BDF1) mice
Conditions: endpoint: mean survival time, higher = longer survival
Outline: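 Tumor was transplanted into mice, which were then dosed with test compound or vehicle alone. Survival was recorded for each group, and the treated figure was expressed relative to the control figure.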

[1] = dose: 100.0 mg/kg/injection, schedule: Q01DX001 (ip), vehicle: saline
[2] = dose: 100.0 mg/kg/injection, schedule: Q01DX009 (ip), vehicle: saline
[3] = dose: 100.0 mg/kg/injection, schedule: Q04DX003 (ip), vehicle: saline
[4] = dose: 200.0 mg/kg/injection, schedule: Q01DX001 (ip), vehicle: saline
[5] = dose: 200.0 mg/kg/injection, schedule: Q01DX009 (ip), vehicle: saline
[6] = dose: 200.0 mg/kg/injection, schedule: Q04DX003 (ip), vehicle: saline
[7] = dose: 400.0 mg/kg/injection, schedule: Q01DX001 (ip), vehicle: saline
[8] = dose: 400.0 mg/kg/injection, schedule: Q01DX009 (ip), vehicle: saline
[9] = dose: 400.0 mg/kg/injection, schedule: Q04DX003 (ip), vehicle: saline
[10] = dose: 100.0 mg/kg/injection, schedule: Q04DX003 (ip), vehicle: saline with Tween-80
[11] = dose: 200.0 mg/kg/injection, schedule: Q04DX003 (ip), vehicle: saline with Tween-80
[12] = dose: 100.0 mg/kg/injection, schedule: Q01DX009 (ip), vehicle: Klucel (hydroxypropylcellulose) (HPC)
[13] = dose: 100.0 mg/kg/injection, schedule: Q04DX003 (ip), vehicle: Klucel (hydroxypropylcellulose) (HPC)
[14] = dose: 200.0 mg/kg/injection, schedule: Q04DX003 (ip), vehicle: Klucel (hydroxypropylcellulose) (HPC)
[15] = dose: 400.0 mg/kg/injection, schedule: Q04DX003 (ip), vehicle: Klucel (hydroxypropylcellulose) (HPC)
[16] = dose: 100.0 mg/kg/injection, schedule: Q01DX001 (ip), vehicle: carboxymethylcellulose (CMC)
[17] = dose: 200.0 mg/kg/injection, schedule: Q01DX001 (ip), vehicle: carboxymethylcellulose (CMC)
[18] = dose: 50.0 mg/kg/injection, schedule: Q01DX001 (ip), vehicle: saline
[19] = dose: 100.0 mg/kg/injection, schedule: Q01DX001 (ip), vehicle: Klucel (hydroxypropylcellulose) (HPC)
[20] = dose: 200.0 mg/kg/injection, schedule: Q01DX001 (ip), vehicle: Klucel (hydroxypropylcellulose) (HPC)
[21] = dose: 400.0 mg/kg/injection, schedule: Q01DX001 (ip), vehicle: Klucel (hydroxypropylcellulose) (HPC)
[22] = dose: 100.0 mg/kg/injection, schedule: Q01DX001 (ip), vehicle: other
[23] = dose: 200.0 mg/kg/injection, schedule: Q01DX001 (ip), vehicle: other
[24] = dose: 400.0 mg/kg/injection, schedule: Q01DX001 (ip), vehicle: other
[25] = dose: 25.0 mg/kg/injection, schedule: Q01DX009 (ip), vehicle: saline
[26] = dose: 50.0 mg/kg/injection, schedule: Q01DX009 (ip), vehicle: saline
[27] = dose: 400.0 mg/kg/injection, schedule: Q04DX003 (ip), vehicle: saline with Tween-80

Measured: T/C

Cc1c(Cl)c(C)c(Cl)c(Cl)c1Cl
inactive: [1] 106 % of control | [2] 101 % of control | [3] 89 % of control | [4] 98 % of control | [5] 108 % of control | [6] 87 % of control | [7] 96 % of control | [8] 94 % of control | [9] 94 % of control

O=[N+]([O-])c1ccc(C=Nc2ccc3c(c2)C(Br)c2ccccc2-3)cc1 (stereo not given)
inactive: dose: 100.0 mg/kg/injection, schedule: Q01DX Z (ip), vehicle: saline 91 % of control | dose: 200.0 mg/kg/injection, schedule: Q01DX Z (ip), vehicle: saline 90 % of control | dose: 400.0 mg/kg/injection, schedule: Q01DX Z (ip), vehicle: saline 95 % of control

O=C(CCCCCCCCCCBr)OCc1ccccc1
inactive: dose: 100.0 mg/kg/injection, schedule: Q01DX001 (ip), vehicle: saline sonified 103 % of control | dose: 200.0 mg/kg/injection, schedule: Q01DX001 (ip), vehicle: saline sonified 99 % of control | dose: 400.0 mg/kg/injection, schedule: Q01DX001 (ip), vehicle: saline sonified 105 % of control

CCCc1nc2ccccc2[nH]1
inactive: [10] 96 % of control | [11] 100 % of control

O=[N+]([O-])c1cc(Br)c(N2CCCC2)cc1N1CCCC1
inactive: [12] 106 % of control | [13] 104 % of control | dose: 200.0 mg/kg/injection, schedule: Q01DX009 (ip), vehicle: Klucel (hydroxypropylcellulose) (HPC) 106 % of control | [14] 93 % of control | dose: 400.0 mg/kg/injection, schedule: Q01DX009 (ip), vehicle: Klucel (hydroxypropylcellulose) (HPC) 98 % of control | [15] 88 % of control

COC(=O)C(Cc1c[nH]c2ccccc12)NC(=O)C(NC(=O)OC(C)(C)C)C(C)C (stereo not given)
inactive: [16] 100 % of control | [17] 94 % of control | dose: 400.0 mg/kg/injection, schedule: Q01DX001 (ip), vehicle: carboxymethylcellulose (CMC) 92 % of control

c1ccc2cc3c(cc2c1)Cn1c-3nc2ccccc21
inactive: [1] 108 % of control | [2] 97 % of control | dose: 100.0 mg/kg/injection, schedule: Q01DX015 (ip), vehicle: saline 95 % of control | [3] 98 % of control | [4] 100 % of control | [5] 95 % of control | dose: 200.0 mg/kg/injection, schedule: Q01DX015 (ip), vehicle: saline 97 % of control | [6] 93 % of control | [7] 100 % of control | [8] 112 % of control | [9] 96 % of control

Cc1cc2c(cc1C)C(=O)OC2=O
inactive: dose: 100.0 mg/kg/injection, schedule: Q01DX009 (ip), vehicle: saline with Tween-80 102 % of control | dose: 200.0 mg/kg/injection, schedule: Q01DX009 (ip), vehicle: saline with Tween-80 98 % of control | dose: 400.0 mg/kg/injection, schedule: Q01DX009 (ip), vehicle: saline with Tween-80 100 % of control

CC(=O)Nc1nc(Cl)c2ncn(C3OC(COC(=O)c4ccccc4)CC3OC(=O)c3ccccc3)c2n1 (stereo not given)
inactive: [18] 93 % of control | [1] 95 % of control | [4] 101 % of control | [7] 93 % of control

COc1ccc(S(=O)(=O)NCCC#N)cc1NC(C)=O
inactive: [19] 95 % of control | dose: 100.0 mg/kg/injection, schedule: Q01DX009 (ip), vehicle: saline sonified 96 % of control | [20] 97 % of control | dose: 200.0 mg/kg/injection, schedule: Q01DX009 (ip), vehicle: saline sonified 96 % of control | [21] 97 % of control | dose: 400.0 mg/kg/injection, schedule: Q01DX009 (ip), vehicle: saline sonified 107 % of control

O=C(O)c1cc(S(=O)(=O)Cl)ccc1Cl
inactive: dose: 50.0 mg/kg/injection, schedule: Q04DX003 (ip), vehicle: Klucel (hydroxypropylcellulose) (HPC) 105 % of control | [16] 95 % of control | [13] 92 % of control | [17] 104 % of control

O=S1(=O)CCCN1c1ccccn1
inactive: dose: 100.0 mg/kg/injection, schedule: Q04DX002 (ip), vehicle: other 104 % of control | dose: 200.0 mg/kg/injection, schedule: Q04DX002 (ip), vehicle: other 89 % of control | dose: 400.0 mg/kg/injection, schedule: Q04DX002 (ip), vehicle: other 96 % of control

O=C(Nc1csnn1)c1ccco1
inactive: dose: 50.0 mg/kg/injection, schedule: Q01DX001 (ip), vehicle: other 104 % of control | [22] 115 % of control | [23] 104 % of control | [24] 110 % of control

Clc1ccc(Cl)c(-c2csc(-c3ccncc3)n2)c1
inactive: dose: 25.0 mg/kg/injection, schedule: Q01DX009 (ip), vehicle: Klucel (hydroxypropylcellulose) (HPC) 116 % of control | dose: 50.0 mg/kg/injection, schedule: Q01DX009 (ip), vehicle: Klucel (hydroxypropylcellulose) (HPC) 100 % of control | [12] 97 % of control and 103 % of control

CCn1cc(C(=O)O)c(=O)c2cc3c(cc21)OCO3
inactive: [22] 96 % of control | [23] 108 % of control | [24] 98 % of control

CC(C)NC1C2CCC(CC2)C1(O)c1ccc(Cl)c(Cl)c1 (stereo not given)
inactive: [25] 101 % of control | dose: 25.0 mg/kg/injection, schedule: Q04DX003 (ip), vehicle: saline 95 % of control | [26] 95 % of control | dose: 50.0 mg/kg/injection, schedule: Q04DX003 (ip), vehicle: saline 97 % of control | [2] 100 % of control | [3] 92 % of control | [5] 95 % of control | [6] 101 % of control | [8] 92 % of control | [9] 92 % of control

COc1ccc(OC)c(C(=S)N2CCOCC2)c1
inactive: [19] 94 % of control | [13] 96 % of control | [20] 102 % of control | [14] 96 % of control | [21] 100 % of control | [15] 96 % of control

CCCC/C=C(\C)CCCCCCCCC (tested in a mixture with another compound)
inactive: [10] 90 % of control | [11] 89 % of control | [27] 98 % of control

CC1CCC(C(C)C)C2(C1)NC(=O)N(CC(=O)O)C2=O (stereo not given)
inactive: [10] 93 % of control | [11] 100 % of control | [27] 104 % of control

O=C1/C(=C/c2ccco2)CCC/C1=C\c1ccco1
inactive: dose: 100.0 mg/kg/injection, schedule: Q01DX001 (ip), vehicle: acetone 95 % of control | dose: 100.0 mg/kg/injection, schedule: Q04DX002 (ip), vehicle: saline with Tween-80 92 % of control | dose: 200.0 mg/kg/injection, schedule: Q01DX001 (ip), vehicle: acetone 87 % of control | dose: 200.0 mg/kg/injection, schedule: Q04DX002 (ip), vehicle: saline with Tween-80 95 % of control | dose: 400.0 mg/kg/injection, schedule: Q01DX001 (ip), vehicle: acetone 97 % of control | dose: 400.0 mg/kg/injection, schedule: Q04DX002 (ip), vehicle: saline with Tween-80 98 % of control

C1CN2CN1CN1CCN(C1)C2
inactive: dose: 12.5 mg/kg/injection, schedule: Q01DX009 (ip), vehicle: saline 101 % of control | [25] 108 % of control | [26] 114 % of control

CC(=O)C1CCc2c(O)c3c(c(O)c2C1)C(=O)c1ccccc1C3=O (stereo not given)
inactive: dose: 87.5 mg/kg/injection, schedule: Q04DX003 (ip), vehicle: saline with Tween-80 94 % of control | dose: 175.0 mg/kg/injection, schedule: Q04DX003 (ip), vehicle: saline with Tween-80 91 % of control | dose: 350.0 mg/kg/injection, schedule: Q04DX003 (ip), vehicle: saline with Tween-80 94 % of control

Cc1ccc(S(=O)(=O)N(CCCc2c(C)ncnc2Cl)c2ccccc2)cc1
inactive: [18] 101 % of control | [1] 92 % of control | [4] 98 % of control | [7] 95 % of control
